Usually IC50 stands for the concentration at which inhibition is half-maximal. Usually Kd stands for a measure of binding affinity in units of concentration. Broadly, the half-life is the time needed for the level to fall by half in the phase considered. A low value points to fast loss. The MRT is a mean duration of stay, worked out from the concentration-time curve. Broadly, the Tmax is the time at which the peak concentration occurs. As a reminder, the Cmax is the peak of the concentration-time curve. A word on the AUC(0-inf): it is total exposure, with the tail of the curve extrapolated. A lower AUC(0-inf) goes with less exposure. The term bioavailability denotes the share of a dose that reaches the circulation, judged against a reference dose that is usually intravenous. Read a high bioavailability as much systemic uptake. As a reminder, the microsomal CLint is a measure of how fast metabolising enzymes remove a compound, apart from limits set by blood flow. Low values mean greater metabolic stability, high ones faster metabolism.

The values below come from ChEMBL document CHEMBL6109136, “Discovery of the 2,3-Dihydrobenzopyrane-4-one as a Potent FTO Inhibitor against Obesity-Related Metabolic Diseases” (J Med Chem, 2025).

The target of data set [1] is T1, Alpha-ketoglutarate-dependent dioxygenase FTO (Homo sapiens, UniProt Q9C0B1). Kind of data set: Inhibition of His-tagged N-terminal FTO (unknown origin).
For data set [2], the target named is T1, Alpha-ketoglutarate-dependent dioxygenase FTO. Briefly: Binding affinity to GFP-tagged FTO (unknown origin) assessed as dissociation constant by microscale thermophoresis analysis. For orientation: In MST a laser heats a spot of the sample, and binding alters the fluorescence response.
For data set [3] the target is unchanged. Briefly: Binding affinity to GFP-tagged FTO (unknown origin) assessed as dissociation constant by SPR analysis.
Data set [4] in a line: Binding affinity to GFP-tagged FTO Arg96 mutant (unknown origin) assessed as dissociation constant by microscale thermophoresis analysis.
Data set [5] can be described thus: Binding affinity to GFP-tagged FTO Tyr108 mutant (unknown origin) assessed as dissociation constant by microscale thermophoresis analysis.
A short description of data set [6]: Binding affinity to GFP-tagged FTO (Ser229) mutant (unknown origin) assessed as dissociation constant by microscale thermophoresis analysis.
A short description of data set [7]: Binding affinity to GFP-tagged FTO Asp233 mutant (unknown origin) assessed as dissociation constant by microscale thermophoresis analysis.
Data set [8] is described as follows: Binding affinity to GFP-tagged FTO Glu234 mutant (unknown origin) assessed as dissociation constant by microscale thermophoresis analysis.
Data set [9] has as its target T2, Cytochrome P450 2C9 (Homo sapiens, UniProt P11712). Briefly: Inhibition of recombinant CYP2C9 in human liver microsome by Liquid chromatography-tandem mass spectrometric analysis.
Data set [10] has as its target Cytochrome P450 2C19 (Homo sapiens, UniProt P33261). Briefly: Inhibition of recombinant CYP2C19 in human liver microsome by Liquid chromatography-tandem mass spectrometric analysis. A general note: Microsomes from liver hold many membrane-bound enzymes, among them those of drug oxidation.
The target of data set [11] is Cytochrome P450 2D6 (Homo sapiens, UniProt P10635). Kind of data set: Inhibition of recombinant CYP2D6 in human liver microsome by Liquid chromatography-tandem mass spectrometric analysis.
In data set [12] the target is CYP3A4/5 (Homo sapiens, UniProt P08684+P20815). Briefly: Inhibition of recombinant CYP3A4/5 in human liver microsome by Liquid chromatography-tandem mass spectrometric analysis. As to conditions: recombinant CYP3A4/5 in human liver microsomes.
Data set [13] can be described thus: Half-life in male Sprague-Dawley rat at 10 mg/kg, po measured up to 24 hrs by HPLC analysis. As to conditions: in vivo.
Data set [14] in a line: MRT in male Sprague-Dawley rat at 10 mg/kg, po measured up to 24 hrs by HPLC analysis. As to conditions: in vivo.
Data set [15] can be described thus: Half-life in male Sprague-Dawley rat at 5 mg/kg, iv measured up to 8 hrs by HPLC analysis. As to conditions: in vivo.
Data set [16] in a line: MRT in male Sprague-Dawley rat at 5 mg/kg, iv measured up to 8 hrs by HPLC analysis. As to conditions: in vivo.
A short description of data set [17]: in vivo. As to conditions: male, Sprague-Dawley, rat, po, 10 mg/kg.
Description: Tmax in male Sprague-Dawley rat at 10 mg/kg, po measured up to 24 hrs by HPLC analysis
Data set [18] in a line: in vivo. As to conditions: male, Sprague-Dawley, rat, po, 10 mg/kg. The source holds these as a separate data set.
Description: Cmax in male Sprague-Dawley rat at 10 mg/kg, po measured up to 24 hrs by HPLC analysis
The nature of data set [19]: in vivo. As to conditions: male, Sprague-Dawley, rat, po, 10 mg/kg. This is another data set of the same source.
Description: AUC (0 to infinity) in male Sprague-Dawley rat at 10 mg/kg, po measured up to 24 hrs by HPLC analysis
Data set [20] is described as follows: in vivo. As to conditions: male, Sprague-Dawley, rat, po, 10 mg/kg. This is another data set of the same source.
Description: Oral bioavailability in male Sprague-Dawley rat at 10 mg/kg measured up to 24 hrs by HPLC analysis
Data set [21] is described as follows: in vivo. As to conditions: male, Sprague-Dawley, rat, iv, 5 mg/kg.
Description: Cmax in male Sprague-Dawley rat at 5 mg/kg, iv measured up to 8 hrs by HPLC analysis
Data set [22] in a line: in vivo. As to conditions: male, Sprague-Dawley, rat, iv, 5 mg/kg. This is another data set of the same source.
Description: AUC (0 to infinity) in male Sprague-Dawley rat at 5 mg/kg, iv measured up to 8 hrs by HPLC analysis
Data set [23] in a line: in vitro. As to conditions: human, liver microsomes.
Description: Metabolic stability in human liver microsome assessed as half-life at 1 uM by HPLC analysis
The nature of data set [24]: in vitro. As to conditions: rat, liver microsomes.
Description: Metabolic stability in rat liver microsome assessed as half-life at 1 uM by HPLC analysis
Data set [25] is described as follows: in vitro. As to conditions: human, liver microsomes. The source holds these as a separate data set.
Description: Metabolic stability in human liver microsomes assessed as intrinsic clearance per mg protein at 1 uM by HPLC analysis
Data set [26] is described as follows: in vitro. As to conditions: rat, liver microsomes. This is another data set of the same source.
Description: Metabolic stability in rat liver microsomes assessed as intrinsic clearance per mg protein at 1 uM by HPLC analysis
A short description of data set [27]: in vitro. As to conditions: human, liver microsomes. The source holds these as a separate data set.
Description: Metabolic stability in human liver microsomes assessed as hepatic clearance at 1 uM by HPLC analysis
The nature of data set [28]: in vitro. As to conditions: rat, liver microsomes. This is another data set of the same source.
Description: Metabolic stability in rat liver microsomes assessed as hepatic clearance at 1 uM by HPLC analysis
In data set [29] the target is T2, Cytochrome P450 2C9. Briefly: Inhibition of CYP2C9 in human liver microsome by Liquid chromatography-tandem mass spectrometric analysis.

Each structure is given as a SMILES string. A value given as a limit tells only on which side of the number the result lay.

T1 sequence (Q9C0B1 whole entry): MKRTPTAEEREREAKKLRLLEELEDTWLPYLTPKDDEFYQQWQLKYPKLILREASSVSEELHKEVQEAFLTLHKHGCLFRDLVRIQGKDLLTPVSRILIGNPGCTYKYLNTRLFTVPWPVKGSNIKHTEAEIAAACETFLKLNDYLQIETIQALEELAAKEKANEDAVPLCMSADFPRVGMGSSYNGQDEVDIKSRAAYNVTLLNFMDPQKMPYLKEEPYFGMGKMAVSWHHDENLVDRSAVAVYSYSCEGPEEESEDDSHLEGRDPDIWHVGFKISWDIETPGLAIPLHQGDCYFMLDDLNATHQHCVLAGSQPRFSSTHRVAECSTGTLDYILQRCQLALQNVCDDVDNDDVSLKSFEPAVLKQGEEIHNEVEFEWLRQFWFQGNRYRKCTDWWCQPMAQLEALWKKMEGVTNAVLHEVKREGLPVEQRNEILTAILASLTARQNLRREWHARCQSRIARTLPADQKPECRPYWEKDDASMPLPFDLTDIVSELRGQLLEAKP
T2 sequence (P11712 whole entry): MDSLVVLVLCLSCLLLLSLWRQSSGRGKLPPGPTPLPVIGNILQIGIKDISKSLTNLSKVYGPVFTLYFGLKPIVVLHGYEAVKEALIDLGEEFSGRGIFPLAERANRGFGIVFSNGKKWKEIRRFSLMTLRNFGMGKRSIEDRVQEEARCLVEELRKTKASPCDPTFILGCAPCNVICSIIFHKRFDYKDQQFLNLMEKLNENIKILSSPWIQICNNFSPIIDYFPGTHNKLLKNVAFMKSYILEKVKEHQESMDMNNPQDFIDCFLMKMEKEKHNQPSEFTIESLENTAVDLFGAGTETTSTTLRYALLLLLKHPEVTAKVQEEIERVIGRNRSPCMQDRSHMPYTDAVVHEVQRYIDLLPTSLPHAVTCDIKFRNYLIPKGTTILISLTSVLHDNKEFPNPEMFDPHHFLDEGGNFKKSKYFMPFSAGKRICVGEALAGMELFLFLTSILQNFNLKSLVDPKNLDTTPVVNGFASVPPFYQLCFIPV
Chain of Cytochrome P450 2C19 (P33261 whole entry): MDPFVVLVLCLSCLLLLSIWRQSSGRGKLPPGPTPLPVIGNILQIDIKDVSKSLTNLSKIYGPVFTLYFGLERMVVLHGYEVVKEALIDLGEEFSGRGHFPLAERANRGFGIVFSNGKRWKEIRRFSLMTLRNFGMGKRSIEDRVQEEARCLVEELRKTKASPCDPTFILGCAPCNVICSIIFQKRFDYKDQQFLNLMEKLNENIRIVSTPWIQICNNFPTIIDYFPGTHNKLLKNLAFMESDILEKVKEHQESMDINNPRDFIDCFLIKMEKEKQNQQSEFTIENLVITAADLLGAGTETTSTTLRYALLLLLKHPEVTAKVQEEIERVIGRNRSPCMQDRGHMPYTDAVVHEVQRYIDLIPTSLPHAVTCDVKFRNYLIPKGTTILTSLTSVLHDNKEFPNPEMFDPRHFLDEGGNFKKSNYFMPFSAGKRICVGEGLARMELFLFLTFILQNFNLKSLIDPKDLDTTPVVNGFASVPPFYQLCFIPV
Chain of Cytochrome P450 2D6 (P10635 whole entry): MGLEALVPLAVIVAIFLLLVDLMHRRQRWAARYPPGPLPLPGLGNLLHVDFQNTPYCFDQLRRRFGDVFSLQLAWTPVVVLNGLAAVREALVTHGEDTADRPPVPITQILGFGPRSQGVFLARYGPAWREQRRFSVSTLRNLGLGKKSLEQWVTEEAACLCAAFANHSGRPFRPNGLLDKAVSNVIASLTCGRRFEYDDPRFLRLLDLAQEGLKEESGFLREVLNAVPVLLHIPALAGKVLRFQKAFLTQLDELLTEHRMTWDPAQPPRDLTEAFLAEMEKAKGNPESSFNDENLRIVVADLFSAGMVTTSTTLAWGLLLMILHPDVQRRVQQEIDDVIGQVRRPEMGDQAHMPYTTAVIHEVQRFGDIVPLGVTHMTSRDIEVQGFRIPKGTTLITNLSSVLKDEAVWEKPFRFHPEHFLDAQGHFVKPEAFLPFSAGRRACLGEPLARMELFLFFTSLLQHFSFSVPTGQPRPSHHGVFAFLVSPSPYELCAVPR

`O=c1cc(-c2ccccc2)oc2cc(O)ccc12` [7-HYDROXYFLAVONE] registered a half-inhibitory concentration (IC50) in data set [1] of 17.9 µM.
In turn, `O=c1cc(-c2cc(O)c(O)c(O)c2)oc2ccccc12` gave a concentration for half-maximal inhibition (IC50) in data set [1] of 13.9 µM.
`O=c1c(O)c(-c2ccc(O)c(O)c2)oc2cc(O)cc(O)c12` [QUERCETIN] returned an IC50 in data set [1] of 9.5 µM.
Still for that read-out and setting: then `O=c1cc(-c2ccc(O)c(O)c2)oc2ccccc12`, with 5.7 µM.
Same read-out and setting: the result for `O=c1ccoc2cc(O)ccc12` reads 16.2 µM; that for `O=c1cc(-c2ccc(O)c(O)c2)oc2cc(O)cc(O)c12` [LUTEOLIN], 7.5 µM.
Consider `O=C1C[C@@H](c2ccc(O)c(O)c2)Oc2cc(O)cc(O)c21` [ERIODICTYOL], for which the dissociation constant Kd in data set [2] amounted to 2.8 µM; in [3], 3.24 µM; in data set [4] it was 257 µM; in data set [5], 47.6 µM; in data set [6] it was 170 µM; in data set [7] it was 109 µM. The Kd in [8] amounted to 186 µM. Further, the concentration for half-maximal inhibition (IC50) in data set [1] was 3.5 µM; in data set [9] it was over 50 µM; in data set [10], 44 µM; in data set [11], over 50 µM; in [12] it was over 50 µM. Further, the half-life at 24 h in [13] is 3.35 h. Further, in data set [14], the MRT at 24 h was found to be 1.89 h. For the same molecule, in data set [15], the half-life at 8 h was 1.63 h. This molecule also came in with a mean residence time MRT at 8 h in data set [16] of 0.828 h. In addition, the time to peak (Tmax) at 24 h in [17] is 0.5 h. In data set [18], this molecule returned a Cmax at 24 h of 472 ng/mL. Besides, in data set [19], the AUC(0-inf) at 24 h came out at 559 ng·h/mL. The molecule also showed a bioavailability at 24 h in [20] of 29.9%. Besides, the Cmax at 8 h in data set [21] was 1830 ng/mL. This molecule showed an AUC(0-inf) at 8 h in data set [22] of 932 ng·h/mL. In addition, the half-life at 1 µM in data set [23] was over 3.11 h; in data set [24] it was 0.345 h. In addition, the microsomal CLint at 1 µM in [25] was under 7.4 µL/min/mg; in data set [26] it was 67.2 µL/min/mg. The CLhep predicted at 1 µM in [27] is under 6.1 mL/min/kg; in [28] it was 37.9 mL/min/kg.
The molecule `O=c1c(O)c(-c2ccc(O)c(O)c2)oc2cc(O)ccc12` [FISETIN] gave an IC50 in data set [1] of 9.2 µM.
On to `COc1ccc(-c2oc3cc(O)cc(O)c3c(=O)c2O)cc1` [KAEMPFERIDE], for which the half-maximal inhibitory concentration (IC50) in [1] stood at 18.2 µM.
Consider `O=c1c(O)c(-c2cc(O)c(O)c(O)c2)oc2cc(O)cc(O)c12` [MYRICETIN], for which, in [2], the Kd was 34 µM. In addition, in data set [1], the midpoint of inhibition, the IC50, lay at 9.6 µM.
Regarding `O=c1c(O)c(-c2ccc(O)cc2)oc2cc(O)cc(O)c12` [KAEMPFEROL], it took 17.6 µM to reach half-maximal inhibition in data set [1] (IC50).
The same measure, in the same setting: then `O=c1cc(-c2ccc(O)cc2)oc2cc(O)c(O)c(O)c12` [SCUTELLAREIN], with 15.6 µM; and `O=c1ccoc2ccccc12` [CHROMONE], with 89.8 µM; and `O=c1c(O)c(-c2ccccc2)oc2cc(O)cc(O)c12` [GALANGIN], with 19.1 µM.
In turn, `CCN(CC)C(=O)/C(C#N)=C/c1cc(O)c(O)c([N+](=O)[O-])c1` [ENTACAPONE] registered an IC50 in data set [29] of 4 µM.
In [1], `O=c1cc(-c2ccccc2)oc2ccc(O)cc12` [6-HYDROXYFLAVONE] registered an IC50 of 17.8 µM.
In data set [1], `O=c1cc(-c2ccccc2)oc2cccc(O)c12` [5-HYDROXYFLAVONE] registered a half-maximal inhibitory concentration (IC50) of 19.2 µM.
Same read-out and setting: then `O=c1c(O)c(-c2ccc(O)cc2)oc2ccccc12`, with 18.5 µM.
In data set [1], `O=c1c(O)c(-c2ccc(O)cc2O)oc2cc(O)cc(O)c12` [MORIN] gave a half-inhibitory concentration (IC50) of 13.9 µM.
In turn, `O=c1cc(-c2ccccc2)oc2cc(O)c(O)c(O)c12` [BAICALEIN] came in with an IC50 in data set [1] of 17.1 µM.
In [1], `O=c1cc(-c2cc(O)c(O)c(O)c2)oc2cc(O)cc(O)c12` [TRICETIN] gave a concentration for half-maximal inhibition (IC50) of 7.7 µM.
The same measure, in the same setting: the result for `O=c1cc(-c2ccc(O)cc2)oc2cc(O)cc(O)c12` [APIGENIN] reads 12.1 µM.
